The values below come from US20220378691A1, “Cosmetic composition comprising fermented product of Nuruk” (DAEBONG LS, LTD, priority 2021, published 2022).

Each structure is given as a SMILES string.

The assay can be described thus: Antioxidant effect: DPPH free radical scavenging test. Particulars: treatment concentration 0.0005%; positive control. As for the experimental part:
The following assay test method was performed by applying the decrease in absorbance at 517 nm wavelength. […] After leaving the prepared sample at room temperature for 15 minutes, absorbance was measured at a wavelength of a 517 nm using a microplate reader. […] In addition, the positive control of this experimental example was prepared by mixing 1 ml of ascorbic acid (10 ppm) solution diluted in methanol and 1 ml of DPPH.

Take `O=C1O[C@H]([C@@H](O)CO)C(O)=C1O` [Ascorbic acid, ascorbic acid]: the “DPPF radical scavenging activity” value is recorded as 91.36 ± 0.13%.
